This note sets out measurements from ChEMBL document CHEMBL1201862, “PubChem BioAssay data set” (2004).

For test [1], the target named is T1, Histone-lysine N-methyltransferase NSD2 (Homo sapiens, UniProt O96028).
T1 sequence (O96028 whole entry): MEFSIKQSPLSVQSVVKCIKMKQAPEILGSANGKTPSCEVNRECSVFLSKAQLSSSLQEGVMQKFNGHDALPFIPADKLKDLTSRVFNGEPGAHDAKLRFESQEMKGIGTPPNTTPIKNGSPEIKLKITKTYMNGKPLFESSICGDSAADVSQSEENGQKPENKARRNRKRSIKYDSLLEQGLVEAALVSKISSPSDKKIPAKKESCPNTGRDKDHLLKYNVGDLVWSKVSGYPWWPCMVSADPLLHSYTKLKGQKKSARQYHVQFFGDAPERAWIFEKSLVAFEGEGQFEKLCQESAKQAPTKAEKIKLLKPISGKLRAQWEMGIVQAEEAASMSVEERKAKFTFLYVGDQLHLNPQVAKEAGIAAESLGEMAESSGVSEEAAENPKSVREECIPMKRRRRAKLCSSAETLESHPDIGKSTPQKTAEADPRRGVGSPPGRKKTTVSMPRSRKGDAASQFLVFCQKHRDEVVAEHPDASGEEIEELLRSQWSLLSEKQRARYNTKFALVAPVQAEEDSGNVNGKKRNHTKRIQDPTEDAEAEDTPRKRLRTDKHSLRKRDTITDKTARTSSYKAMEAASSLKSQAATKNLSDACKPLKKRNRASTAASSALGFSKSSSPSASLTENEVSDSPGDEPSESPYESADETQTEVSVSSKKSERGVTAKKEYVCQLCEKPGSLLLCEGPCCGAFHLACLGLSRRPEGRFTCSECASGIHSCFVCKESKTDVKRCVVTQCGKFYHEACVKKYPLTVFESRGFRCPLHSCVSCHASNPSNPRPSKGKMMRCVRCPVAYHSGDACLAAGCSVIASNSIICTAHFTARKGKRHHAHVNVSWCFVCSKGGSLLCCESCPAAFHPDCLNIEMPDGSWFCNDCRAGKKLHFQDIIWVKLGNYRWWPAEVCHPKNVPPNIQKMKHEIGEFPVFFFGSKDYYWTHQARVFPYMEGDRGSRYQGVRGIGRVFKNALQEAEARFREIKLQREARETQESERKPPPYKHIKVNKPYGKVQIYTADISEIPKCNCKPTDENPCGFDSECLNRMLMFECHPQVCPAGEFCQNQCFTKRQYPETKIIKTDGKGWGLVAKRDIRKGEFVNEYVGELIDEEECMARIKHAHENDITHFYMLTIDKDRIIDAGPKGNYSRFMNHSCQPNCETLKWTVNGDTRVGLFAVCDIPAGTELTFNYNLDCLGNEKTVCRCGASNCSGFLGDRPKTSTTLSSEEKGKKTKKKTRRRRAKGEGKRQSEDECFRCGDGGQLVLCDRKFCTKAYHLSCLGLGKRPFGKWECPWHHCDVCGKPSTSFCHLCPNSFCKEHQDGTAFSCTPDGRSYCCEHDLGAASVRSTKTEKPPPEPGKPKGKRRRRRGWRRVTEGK
It is filed as biochemical.

The target in test [2] is Serine/threonine-protein kinase BRSK1 (Homo sapiens, UniProt Q8TDC3). The class given is functional.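 Note: measured within a kinome-wide kinase panel, with the target listed as KIAA1811.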
The target of test [3] is Tyrosine-protein kinase FRK (Homo sapiens, UniProt P42685). It is filed as functional.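 Note: FRK tested as one member of a kinome panel.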
For test [4], the target named is Protein kinase C gamma type (Homo sapiens, UniProt P05129). The class given is functional.
The target in test [5] is Mitogen-activated protein kinase kinase kinase kinase 4 (Homo sapiens, UniProt O95819). It is filed as functional.
Chain of Mitogen-activated protein kinase kinase kinase kinase 4 (O95819 whole entry): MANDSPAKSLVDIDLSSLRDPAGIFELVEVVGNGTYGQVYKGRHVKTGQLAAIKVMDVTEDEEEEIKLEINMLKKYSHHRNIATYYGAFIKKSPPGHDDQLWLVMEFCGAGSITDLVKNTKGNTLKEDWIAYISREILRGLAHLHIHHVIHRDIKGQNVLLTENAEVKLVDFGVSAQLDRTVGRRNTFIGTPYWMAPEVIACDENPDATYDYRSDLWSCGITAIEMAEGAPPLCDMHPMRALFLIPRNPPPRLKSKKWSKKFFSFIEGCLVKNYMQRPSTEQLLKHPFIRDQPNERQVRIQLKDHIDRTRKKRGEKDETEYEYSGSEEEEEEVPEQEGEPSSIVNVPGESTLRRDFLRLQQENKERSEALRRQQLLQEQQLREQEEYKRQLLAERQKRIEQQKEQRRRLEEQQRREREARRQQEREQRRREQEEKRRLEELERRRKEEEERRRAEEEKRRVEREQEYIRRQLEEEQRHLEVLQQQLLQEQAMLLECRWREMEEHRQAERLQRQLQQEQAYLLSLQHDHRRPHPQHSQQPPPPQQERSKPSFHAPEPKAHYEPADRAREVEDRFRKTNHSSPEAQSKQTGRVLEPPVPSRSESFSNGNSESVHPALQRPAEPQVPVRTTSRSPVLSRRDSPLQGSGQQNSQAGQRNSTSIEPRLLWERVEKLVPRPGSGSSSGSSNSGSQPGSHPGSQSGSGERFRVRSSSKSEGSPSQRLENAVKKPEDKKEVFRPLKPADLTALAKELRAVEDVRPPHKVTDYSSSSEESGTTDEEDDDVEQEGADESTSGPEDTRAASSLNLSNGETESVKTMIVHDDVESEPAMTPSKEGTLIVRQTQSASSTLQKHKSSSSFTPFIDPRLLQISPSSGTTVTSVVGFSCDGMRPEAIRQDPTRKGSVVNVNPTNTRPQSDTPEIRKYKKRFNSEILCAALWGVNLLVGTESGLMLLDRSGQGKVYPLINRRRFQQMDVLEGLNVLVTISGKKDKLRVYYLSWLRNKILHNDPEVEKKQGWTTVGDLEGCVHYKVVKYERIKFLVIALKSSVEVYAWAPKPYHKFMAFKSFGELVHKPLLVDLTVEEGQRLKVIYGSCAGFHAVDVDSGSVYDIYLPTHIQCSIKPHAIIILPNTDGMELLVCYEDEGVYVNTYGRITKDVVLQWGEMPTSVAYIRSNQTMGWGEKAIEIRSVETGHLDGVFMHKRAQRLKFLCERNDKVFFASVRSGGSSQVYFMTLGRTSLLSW
Test [6] has as its target Ribosomal protein S6 kinase beta-1 (Homo sapiens, UniProt P23443). It is filed as functional.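 Note: measured as one member of a kinome-wide profiling panel.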
Test [7] concerns the target Protein kinase C zeta type (Homo sapiens, UniProt Q05513). It is filed as functional.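 Note: measured as one member of a broad kinase profiling panel.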
The target of test [8] is Insulin-like growth factor 1 receptor (Homo sapiens, UniProt P08069). Description: Navigating the Kinome. Panel member name: IGF1R. It is filed as functional.
Test [9] has as its target Proto-oncogene tyrosine-protein kinase Src (Homo sapiens, UniProt P12931). The class given is functional.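 Note: SRC entry within a kinome-wide kinase profiling panel.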
Test [10] addresses BDNF/NT-3 growth factors receptor (Homo sapiens, UniProt Q16620). It is filed as functional.
Test [11] concerns the target Cell division cycle 7-related protein kinase (Homo sapiens, UniProt O00311). The class given is functional.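 Note: value obtained from a kinome-wide kinase panel.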
For test [12], the target named is 5'-AMP-activated protein kinase catalytic subunit alpha-1 (Homo sapiens, UniProt Q13131). It is filed as functional.
Chain of 5'-AMP-activated protein kinase catalytic subunit alpha-1 (Q13131 whole entry): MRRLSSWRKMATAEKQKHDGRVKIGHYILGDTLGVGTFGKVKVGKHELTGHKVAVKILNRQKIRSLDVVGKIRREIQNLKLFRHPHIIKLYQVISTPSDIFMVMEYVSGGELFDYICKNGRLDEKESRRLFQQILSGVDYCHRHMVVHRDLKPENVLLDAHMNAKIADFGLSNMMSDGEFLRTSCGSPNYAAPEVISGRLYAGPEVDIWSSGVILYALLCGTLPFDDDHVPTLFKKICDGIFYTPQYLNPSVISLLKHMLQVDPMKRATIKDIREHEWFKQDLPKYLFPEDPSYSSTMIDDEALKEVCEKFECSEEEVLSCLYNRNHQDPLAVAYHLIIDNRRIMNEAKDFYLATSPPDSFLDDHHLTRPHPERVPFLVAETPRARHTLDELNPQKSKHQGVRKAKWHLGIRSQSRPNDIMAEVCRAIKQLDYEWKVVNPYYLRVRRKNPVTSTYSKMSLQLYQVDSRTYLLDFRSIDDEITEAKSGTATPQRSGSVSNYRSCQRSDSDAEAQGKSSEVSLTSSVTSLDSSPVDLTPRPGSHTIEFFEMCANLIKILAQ
Test [13] has as its target Calcium/calmodulin-dependent protein kinase type II subunit gamma (Homo sapiens, UniProt Q13555). It is filed as functional.
Test [14] addresses Macrophage colony-stimulating factor 1 receptor (Homo sapiens, UniProt P07333). It is filed as functional.
Test [15] addresses Cyclin-dependent kinase 9 (Homo sapiens, UniProt P50750). The class given is functional.

Activity calls are given as the source filed them. Where only a bound is given, the exact number is not on record here.

Chain of Macrophage colony-stimulating factor 1 receptor (P07333 whole entry): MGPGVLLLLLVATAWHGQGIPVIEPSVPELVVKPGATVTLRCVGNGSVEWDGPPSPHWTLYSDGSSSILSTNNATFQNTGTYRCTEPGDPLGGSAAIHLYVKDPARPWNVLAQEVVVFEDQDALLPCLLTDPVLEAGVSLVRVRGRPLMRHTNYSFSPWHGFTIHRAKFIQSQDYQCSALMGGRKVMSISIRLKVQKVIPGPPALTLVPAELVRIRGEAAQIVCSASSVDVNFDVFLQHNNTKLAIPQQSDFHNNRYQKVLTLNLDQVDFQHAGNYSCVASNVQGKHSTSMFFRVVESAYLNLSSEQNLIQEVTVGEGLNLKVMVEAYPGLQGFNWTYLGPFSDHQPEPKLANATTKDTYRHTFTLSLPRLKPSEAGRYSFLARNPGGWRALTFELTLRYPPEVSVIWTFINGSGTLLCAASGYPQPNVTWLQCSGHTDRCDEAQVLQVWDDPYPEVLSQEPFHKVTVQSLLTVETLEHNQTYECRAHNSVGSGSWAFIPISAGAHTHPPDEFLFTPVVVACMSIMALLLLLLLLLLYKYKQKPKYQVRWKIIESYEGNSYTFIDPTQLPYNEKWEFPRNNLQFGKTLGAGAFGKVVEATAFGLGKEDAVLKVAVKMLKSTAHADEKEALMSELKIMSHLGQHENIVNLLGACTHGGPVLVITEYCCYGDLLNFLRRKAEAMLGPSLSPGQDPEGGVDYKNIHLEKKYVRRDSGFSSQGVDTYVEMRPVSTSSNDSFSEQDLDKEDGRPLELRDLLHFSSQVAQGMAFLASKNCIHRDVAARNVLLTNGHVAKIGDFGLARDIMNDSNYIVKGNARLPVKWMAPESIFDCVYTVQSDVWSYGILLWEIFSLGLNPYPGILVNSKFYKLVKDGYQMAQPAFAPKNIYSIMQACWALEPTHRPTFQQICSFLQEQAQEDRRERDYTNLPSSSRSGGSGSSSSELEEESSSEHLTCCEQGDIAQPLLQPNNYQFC
Chain of Cell division cycle 7-related protein kinase (O00311 whole entry): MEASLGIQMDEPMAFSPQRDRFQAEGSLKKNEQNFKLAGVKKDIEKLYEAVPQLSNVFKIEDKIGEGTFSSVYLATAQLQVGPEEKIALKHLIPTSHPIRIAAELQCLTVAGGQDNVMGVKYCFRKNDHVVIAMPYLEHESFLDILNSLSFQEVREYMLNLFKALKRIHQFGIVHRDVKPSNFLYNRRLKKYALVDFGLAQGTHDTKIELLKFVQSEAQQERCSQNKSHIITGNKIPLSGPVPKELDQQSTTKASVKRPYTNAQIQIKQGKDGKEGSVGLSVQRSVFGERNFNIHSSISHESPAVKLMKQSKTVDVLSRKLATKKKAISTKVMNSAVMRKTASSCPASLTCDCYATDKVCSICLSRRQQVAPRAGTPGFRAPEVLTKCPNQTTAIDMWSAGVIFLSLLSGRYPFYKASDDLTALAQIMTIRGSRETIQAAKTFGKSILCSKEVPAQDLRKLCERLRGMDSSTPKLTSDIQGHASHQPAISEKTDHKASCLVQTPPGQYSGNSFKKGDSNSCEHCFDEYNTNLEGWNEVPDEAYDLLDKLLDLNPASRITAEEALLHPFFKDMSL
Chain of Protein kinase C zeta type (Q05513 whole entry): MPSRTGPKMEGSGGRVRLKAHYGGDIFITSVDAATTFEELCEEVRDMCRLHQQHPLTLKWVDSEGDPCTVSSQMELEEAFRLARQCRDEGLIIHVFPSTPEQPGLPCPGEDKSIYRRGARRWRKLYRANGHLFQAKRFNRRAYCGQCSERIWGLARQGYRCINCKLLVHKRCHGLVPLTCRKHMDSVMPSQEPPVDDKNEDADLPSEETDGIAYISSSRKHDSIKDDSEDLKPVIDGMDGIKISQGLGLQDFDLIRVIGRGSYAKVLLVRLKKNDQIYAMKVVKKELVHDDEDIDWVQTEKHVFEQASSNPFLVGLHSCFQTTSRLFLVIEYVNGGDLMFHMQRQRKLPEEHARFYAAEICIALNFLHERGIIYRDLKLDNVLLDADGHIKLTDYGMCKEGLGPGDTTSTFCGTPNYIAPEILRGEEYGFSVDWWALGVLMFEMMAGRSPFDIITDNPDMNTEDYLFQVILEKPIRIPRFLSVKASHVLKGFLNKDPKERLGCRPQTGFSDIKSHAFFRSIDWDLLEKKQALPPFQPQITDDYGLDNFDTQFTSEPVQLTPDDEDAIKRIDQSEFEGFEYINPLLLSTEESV
Chain of Calcium/calmodulin-dependent protein kinase type II subunit gamma (Q13555 whole entry): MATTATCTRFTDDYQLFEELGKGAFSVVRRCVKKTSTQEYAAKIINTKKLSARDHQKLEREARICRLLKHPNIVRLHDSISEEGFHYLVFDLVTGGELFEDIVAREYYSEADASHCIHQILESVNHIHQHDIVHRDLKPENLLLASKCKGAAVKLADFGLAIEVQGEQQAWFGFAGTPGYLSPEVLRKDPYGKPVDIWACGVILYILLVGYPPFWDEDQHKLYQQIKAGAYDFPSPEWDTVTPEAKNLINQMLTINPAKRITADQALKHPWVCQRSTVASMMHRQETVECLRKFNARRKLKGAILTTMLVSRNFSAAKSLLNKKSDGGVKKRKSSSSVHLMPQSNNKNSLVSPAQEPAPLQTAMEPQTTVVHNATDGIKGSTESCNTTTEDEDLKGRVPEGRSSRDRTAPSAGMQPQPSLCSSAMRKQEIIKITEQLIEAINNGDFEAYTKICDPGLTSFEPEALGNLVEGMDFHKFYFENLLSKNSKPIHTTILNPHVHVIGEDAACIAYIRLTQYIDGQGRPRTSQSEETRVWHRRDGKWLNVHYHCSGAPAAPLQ
Chain of Ribosomal protein S6 kinase beta-1 (P23443 whole entry): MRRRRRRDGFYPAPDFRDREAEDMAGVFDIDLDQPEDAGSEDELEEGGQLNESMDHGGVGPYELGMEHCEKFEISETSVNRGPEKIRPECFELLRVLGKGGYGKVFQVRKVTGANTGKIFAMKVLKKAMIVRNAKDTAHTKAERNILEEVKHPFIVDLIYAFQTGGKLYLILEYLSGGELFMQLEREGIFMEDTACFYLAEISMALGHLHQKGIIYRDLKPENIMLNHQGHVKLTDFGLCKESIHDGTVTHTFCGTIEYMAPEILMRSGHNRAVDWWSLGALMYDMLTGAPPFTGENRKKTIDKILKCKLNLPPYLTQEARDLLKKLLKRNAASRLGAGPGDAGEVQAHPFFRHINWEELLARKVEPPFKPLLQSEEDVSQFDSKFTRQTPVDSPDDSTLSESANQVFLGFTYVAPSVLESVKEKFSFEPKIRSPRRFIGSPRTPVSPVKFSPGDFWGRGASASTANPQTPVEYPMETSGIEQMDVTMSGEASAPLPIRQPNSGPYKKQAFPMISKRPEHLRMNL

Usually AC50 stands for the concentration at which the activity in the assay is half-maximal. Regarding `CCOC(=O)c1c2c(n(Cc3ccccc3)c1C)C(=O)C(=O)c1ccccc1-2`, the AC50 in test [1] is 263 nM (active).
By Ki is commonly meant a dissociation constant, usually derived from enzyme kinetics or from competition with a known ligand. With `Cc1ccc2nccc(NC(=O)Nc3cccc(C(F)(F)F)n3)c2c1`, the Ki was > 10000 nM (inactive) in test [2]; 100 nM (active) in [3]; 5010 nM (active) in test [4]; > 2510 nM (inactive) in test [5]; > 6310 nM (inactive) in test [6]; > 7940 nM (inactive) in test [7]. Also, the Ki is > 2000 nM (inactive) in test [8]; > 2000 nM (inactive) in test [9]; > 5010 nM (inactive) in test [10]; > 1260 nM (inactive) in test [11]; > 2510 nM (inactive) in [12]; > 6310 nM (inactive) in test [13]. Besides, in [14], the Ki is > 2510 nM (inactive).
For the molecule `Cc1nn(C)c2sc3c(=O)[nH]cnc3c12`, the Ki in [15] and in test [14] was > 63100 nM (inactive) in each case.
As to `Cc1c(/N=C2\C=CC(=O)c3ccccc32)c(=O)n(-c2ccccc2)n1C`, the AC50 in test [1] was 2430 nM (active).
On to `COc1cc2c(cc1F)C(c1ccccc1Cl)=Nc1c(n[nH]c1C)N2` [RG-1530], for which the inhibition constant Ki in test [2] was 1260 nM (active); in test [3], 79.4 nM (active); in test [4] it was 3980 nM (active); in test [5], > 3980 nM (inactive); in [15], > 1580 nM (inactive); in test [6] it was > 6310 nM (inactive). The Ki in [7] is > 7940 nM (inactive); in test [8], > 1260 nM (inactive); in test [9], 126 nM (active); in test [10] it was 100 nM (active); in test [11] it was > 1260 nM (inactive); in test [12], 631 nM (active). In addition, the Ki in [13] was > 6310 nM (inactive).
